Patent US8859535B2, “Hydroxy substituted isoquinolinone derivatives” (Novartis AG, priority 2011, dated 2014)

Tests used:
Format in all cases: binding
[1] = target: T1, human MDM2 protein (amino acids 2-188) (Homo sapiens, UniProt Q00987); experiment: p53-MDM2 TR-FRET assay (p53-MDM2 Assay 1); details: 1.25 nM MDM2-biotinylated, 10 nM Cy5-p53 peptide; read-out: IC50 (μM) of p53-Hdm2 inhibition (TR-FRET) Assay 1
T1 construct: human MDM2 protein (amino acids 2-188); made in house
Procedure, shortened: (§1)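 Peptide displacement read as 665/620 nm TR-FRET ratio (excitation 340 nm) after 15 min room temperature with 10 nM Cy5-p53 aa18-26, following 15 min preincubation of Eu-streptavidin (0.625 nM) with biotinylated MDM4 aa 2-185 (2.5 nM) or MDM2 aa 2-188 (1.25 nM); IC50 curve-fitted. MDM2 Assay 2: MDM2 and Eu-streptavidin each 0.1 nM.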

[2] = target: T1, human MDM2 protein (amino acids 2-188); experiment: p53-MDM2 TR-FRET assay, modified (p53-MDM2 Assay 2); details: 0.1 nM MDM2, 0.1 nM Europium labeled streptavidin; read-out: IC50 (nM) of p53-Hdm2 inhibition (TR-FRET) Assay 2
Experimental: Time Resolved Fluorescence Energy Transfer (TR-FRET) Assay
The inhibition of p53-MDM2 and p53-MDM4 interactions is measured by time resolved fluorescence energy transfer (TR-FRET). Fluorescence energy transfer (or Foerster resonance energy transfer) describes an energy transfer between donor and acceptor fluorescent molecules. For this assay, human MDM2 protein (amino acids 2-188) and human MDM4 protein (amino acids 2-185), tagged with a C-terminal biotin moiety, are used in combination with a Europium labeled streptavidin (Perkin Elmer, Inc., Waltham, Mass., USA) serving as the donor fluorophore. The p53 derived, Cy5 labeled peptide Cy5-TFSDLWKLL (p53 aa18-26) is the energy acceptor. Upon excitation of the donor molecule at 340 nm, binding interaction between MDM2 or MDM4 and the p53 peptide induces energy transfer and enhanced response at the acceptor emission wavelength at 665 nm. Disruption of the formation of the p53-MDM2 or p53-MDM4 complex due to an inhibitor molecule binding to the p53 binding site of MDM2 or MDM4 results in increased donor emission at 620 nm. The ratiometric FRET assay readout is calculated from the raw data of the two distinct fluorescence signals measured in time resolved mode (fluorescence 665 nm/fluorescence 620 nm×1000).
After addition of 1.25 nM MDM2-biotinylated or 2.5 nM MDM4-biotinylated (internal preparations), and 0.625 nM Europium labeled streptavidin (Perkin Elmer), the solution is pre-incubated for 15 minutes at room temperature, then 10 nM Cy5-p53 peptide (internal preparation) is added before an incubation at room temperature for 15 minutes prior to reading the plate. For measurement of samples, a Victor II microplate reader (Perkin Elmer) is used with the following settings: Excitation 340 nm, Emission Donor 620 nm and Emission Acceptor 665 nm. IC50 values are calculated by curve fitting using XLfit. If not specified, reagents are purchased from Sigma-Aldrich Chemie GmBH, Buchs, Switzerland.
This assay was used to evaluate compounds displaying inhibition of p53-MDM2 interaction and p53-MDM4 interaction at IC50s of 0.005 to 50 μM (p53-MDM2 Assay 1 and p53-MDM4 Assay 1, respectively). For selected compounds displaying IC50s between […] on MDM2, a slightly modified assay is used with the following adaptations: 0.1 nM MDM2, 0.1 nM Europium labeled streptavidin and Tecan genios Pro is used as a microplate reader for the fluorescence measurements (p53-MDM2 Assay 2).

[3] = target: T2, human MDM4 protein (amino acids 2-185) (Homo sapiens, UniProt O15151); experiment: p53-MDM4 TR-FRET assay (p53-MDM4 Assay 1); details: 2.5 nM MDM4-biotinylated, 10 nM Cy5-p53 peptide; read-out: IC50 (μM) of p53-Hdm4 inhibition (TR-FRET) Assay 1
T2 construct: human MDM4 protein (amino acids 2-185); made in house
T2 sequence (O15151 2-185): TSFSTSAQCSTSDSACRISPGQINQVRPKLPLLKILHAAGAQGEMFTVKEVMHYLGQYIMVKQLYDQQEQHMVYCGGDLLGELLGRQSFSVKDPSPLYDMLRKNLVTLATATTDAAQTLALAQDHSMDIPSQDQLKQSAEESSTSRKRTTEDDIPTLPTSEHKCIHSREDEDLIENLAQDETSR
Procedure, shortened: as §1

T1 sequence (Q00987 2-188): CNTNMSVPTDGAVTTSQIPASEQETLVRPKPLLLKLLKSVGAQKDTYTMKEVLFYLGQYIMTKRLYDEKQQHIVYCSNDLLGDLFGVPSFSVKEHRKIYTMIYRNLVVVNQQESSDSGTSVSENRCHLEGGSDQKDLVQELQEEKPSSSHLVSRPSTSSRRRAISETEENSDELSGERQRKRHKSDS

SMILES | IC50 [1] [µM] | IC50 [2] [nM] | IC50 [3] [µM]
COc1cc2c(cc1OC(C)C)[C@H](c1ccc(Cl)cc1)N(c1ccc(C(C)(O)C3CC4CCCC(C3)N4CC(F)(F)F)cc1)C(=O)C2 (stereo partly drawn) [Example 118, (S)-1-(4-Chloro-phenyl)-2-(4-{1-hydroxy-1-[9-(2,2,2-trifluoro-ethyl)-9-aza-bicyclo[3.3.1]non-3-yl]-ethyl}-phenyl)-7-isopropoxy-6-methoxy-1,4-dihydro-2H-isoquinolin-3-one] | 0.0129 | 13.7 | 25.1
COc1cc2c(cc1OC(C)C)[C@H](c1ccc(Cl)cc1)N(c1ccc(C(C)(O)C3CC4CCCC(C3)N4C=O)cc1)C(=O)C2 (stereo partly drawn) [Example 117, 3-(1-{4-[(S)-1-(4-Chloro-phenyl)-7-isopropoxy-6-methoxy-3-oxo-3,4-dihydro-1H-isoquinolin-2-yl]-phenyl}-1-hydroxy-ethyl)-9-aza-bicyclo[3.3.1]nonane-9-carbaldehyde] | 0.0028 | 1.6 | 2.88
COc1cc2c(cc1OC(C)C)[C@H](c1ccc(Cl)cc1)N(c1ccc(C(C)(O)C3CC4CCC(C3)N4CC(F)(F)F)cc1)C(=O)C2 (stereo partly drawn) [Example 106, (S)-1-(4-Chloro-phenyl)-2-(4-{1-hydroxy-1-[8-(2,2,2-trifluoro-ethyl)-8-aza-bicyclo[3.2.1]oct-3-yl]-ethyl}-phenyl)-7-isopropoxy-6-methoxy-1,4-dihydro-2H-isoquinolin-3-one] | 0.0049 | 1.97 | 8.84
COc1cc2c(cc1OC(C)C)[C@H](c1ccc(Cl)cc1)N(c1ccc(C(C)(O)C3CCN(C4COC4)CC3)cc1)C(=O)C2 (stereo partly drawn) [Example 96, (S)-1-(4-Chloro-phenyl)-2-{4-[1-hydroxy-1-(1-oxetan-3-yl-piperidin-4-yl)-ethyl]-phenyl}-7-isopropoxy-6-methoxy-1,4-dihydro-2H-isoquinolin-3-one] | 0.0021 | 1.35 | 2.18
COc1cc2c(cc1OC(C)C)[C@H](c1ccc(Cl)cc1)N(c1ccc(C(C)(O)C3CC4CCC(C3)N4C(=O)N(C)C)cc1)C(=O)C2 (stereo partly drawn) [Example 108, 3-(1-{4-[(S)-1-(4-Chloro-phenyl)-7-isopropoxy-6-methoxy-3-oxo-3,4-dihydro-1H-isoquinolin-2-yl]-phenyl}-1-hydroxy-ethyl)-8-aza-bicyclo[3.2.1]octane-8-carboxylic acid dimethylamide] | 0.0027 | 2.07 | 1.99
CNC(=O)N1C2CCC1CC(C(C)(O)c1ccc(N3C(=O)Cc4cc(OC)c(OC(C)C)cc4[C@@H]3c3ccc(Cl)cc3)cc1)C2 (stereo partly drawn) [Example 109, 3-(1-{4-[(S)-1-(4-Chloro-phenyl)-7-isopropoxy-6-methoxy-3-oxo-3,4-dihydro-1H-isoquinolin-2-yl]-phenyl}-1-hydroxy-ethyl)-8-aza-bicyclo[3.2.1]octane-8-carboxylic acid methylamide] | 0.0024 | 1.7 | 2.5
CCN1C2CCCC1CC(C(C)(O)c1ccc(N3C(=O)Cc4cc(OC)c(OC(C)C)cc4[C@@H]3c3ccc(Cl)cc3)cc1)C2 (stereo partly drawn) [Example 122, (S)-1-(4-Chloro-phenyl)-2-{4-[1-(9-ethyl-9-aza-bicyclo[3.3.1]non-3-yl)-1-hydroxy-ethyl]-phenyl}-7-isopropoxy-6-methoxy-1,4-dihydro-2H-isoquinolin-3-one] | – | 2.31 | –

Second part, the compound after the results:

IC50 [1] [µM] | IC50 [2] [nM] | IC50 [3] [µM] | SMILES
0.0041 | 3.72 | 4.52 | COc1cc2c(cc1OC(C)C)[C@H](c1ccc(Cl)cc1)N(c1ccc(C(C)(O)C3CC4CCCC(C3)O4)cc1)C(=O)C2 (stereo partly drawn) [Example 161, (S)-1-(4-Chloro-phenyl)-2-{4-[1-hydroxy-1-(9-oxa-bicyclo[3.3.1]non-3-yl)-ethyl]-phenyl}-7-isopropoxy-6-methoxy-1,4-dihydro-2H-isoquinolin-3-one]
0.0028 | 1.92 | 3.58 | COc1cc2c(cc1OC(C)C)[C@H](c1ccc(Cl)cc1)N(c1ccc(C(C)(O)C3CC4CCCC(C3)S4(=O)=O)cc1)C(=O)C2 (mixture of isomers) [Example 175, (S)-1-(4-Chloro-phenyl)-2-{4-[1-(9,9-dioxo-9-thia-bicyclo[3.3.1]non-3-yl)-1-hydroxy-ethyl]-phenyl}-7-isopropoxy-6-methoxy-1,4-dihydro-2H-isoquinolin-3-one]
– | 2.09 | – | [2H]C([2H])([2H])Oc1cc2c(cc1OC(C)C)[C@H](c1ccc(Cl)cc1)N(c1ccc(C(C)(O)C3CCN(C=O)CC3)cc1)C(=O)C2 (stereo partly drawn) [Example 151, 4-(1-{4-[(S)-1-(4-Chloro-phenyl)-7-isopropoxy-6-d^3-methoxy-3-oxo-3,4-dihydro-1H-isoquinolin-2-yl]-phenyl}-1-hydroxy-ethyl)-piperidine-1-carbaldehyde]
– | 12.6 | – | COc1cc2c(cc1OC(C)C)[C@H](c1ccc(Cl)cc1)N(c1ccc(C(C)(O)C3C4CNCC3COC4)cc1)C(=O)C2 (stereo partly drawn) [Example 156, (S)-1-(4-Chloro-phenyl)-2-{4-[1-hydroxy-1-(3-oxa-7-aza-bicyclo[3.3.1]non-9-yl)-ethyl]-phenyl}-7-isopropoxy-6-methoxy-1,4-dihydro-2H-isoquinolin-3-one]
– | 58.6 | – | COc1cc2c(cc1OC(C)C)[C@H](c1ccc(Cl)cc1)N(c1ccc([C@](C)(O)C3CCN(C4COC4)CC3)cc1)C(=O)C2 (single isomer, unassigned) [Example 126]
– | 0.894 | – | COc1cc2c(cc1OC(C)C)[C@H](c1ccc(Cl)cc1)N(c1ccc([C@@](C)(O)C3CC4CCC(C3)O4)cc1)C(=O)C2 (single isomer, unassigned) [Example 159]
– | 1.62 | – | COc1cc2c(cc1OC(C)C)[C@H](c1ccc(Cl)cc1)N(c1ccc([C@@](C)(O)C3CCN(C(=O)CO)CC3)cc1)C(=O)C2 (single isomer, unassigned) [Example 133]
– | 1.28 | – | COc1cc2c(cc1OC(C)C)[C@H](c1ccc(Cl)cc1)N(c1ccc(C(C)(O)[C@H]3CCCN(C(=O)OC(C)(C)C)C3)cc1)C(=O)C2 (stereo partly drawn) [Example 179, (S)-3-(1-{4-[(S)-1-(4-Chloro-phenyl)-7-isopropoxy-6-methoxy-3-oxo-3,4-dihydro-1H-isoquinolin-2-yl]-phenyl}-1-hydroxy-ethyl)-piperidine-1-carboxylic acid tert-butyl ester]
– | 1.15 | – | COc1cc2c(cc1OC(C)C)[C@H](c1ccc(Cl)cc1)N(c1ccc([C@@](C)(O)C3CC4CCCC(C3)S4(=O)=O)cc1)C(=O)C2 (stereo partly drawn) [Example 177, (S)-1-(4-Chloro-phenyl)-2-{4-[(S)-1-(9,9-dioxo-9-thia-bicyclo[3.3.1]non-3-yl)-1-hydroxy-ethyl]-phenyl}-7-isopropoxy-6-methoxy-1,4-dihydro-2H-isoquinolin-3-one]
– | 3.16 | – | [2H]C([2H])([2H])Oc1cc2c(cc1OC(C)C)[C@H](c1ccc(Cl)cc1)N(c1ccc([C@@](C)(O)C3CCS(=O)(=O)CC3)cc1)C(=O)C2 (single isomer, unassigned) [Example 153]
– | 0.329 | – | COc1cc2c(cc1OC(C)C)[C@H](c1ccc(Cl)cc1)N(c1ccc(C(C)(O)[C@H]3CCCN(C=O)C3)cc1)C(=O)C2 (stereo partly drawn) [Example 182, (S)-3-(1-{4-[(S)-1-(4-Chloro-phenyl)-7-isopropoxy-6-methoxy-3-oxo-3,4-dihydro-1H-isoquinolin-2-yl]-phenyl}-1-hydroxy-ethyl)-piperidine-1-carbaldehyde]
